# Columns and labels:
# Format in all cases: cell-based, human
# [1] = test system: Patient B1 breast cancer cells; test: CELx Anti-Proliferative test, impedance biosensor CReMS; conditions: continuous recording throughout the test period, untreated control cells
# Method: (§1) A CELx Anti-Proliferative test was performed using cells from two breast cancer patients (Patients B1 and B2) and the drug Paclitaxel. The physiologic change of the Bland B2 cells during the test was measured with an impedance biosensor CReMS and the output from the CReMS is recorded in FIGS. 2A and 2B. The comparison of the CELx test results and the third party clinical reference is recorded in FIG. 2C.
# (§2) The CReMS, microplate, reagents, and buffers used in Example 1 are the same as those employed in Example 2, except for the therapeutic agent tested. In Example 2, the therapeutic agent, paclitaxel, was tested. Paclitaxel was purchased from Selleck Chemicals (TX, USA).
# (§3) Between 6,000-12,000 cells in each well were seeded onto the impedance microplate containing 120 uL settling media with serum. Forty microliters of the drug paclitaxel were added to one set each of the B1 and B2 cells; another control set of B1 and B2 cells received no drug. The CReMS recording of physiologic change was maintained continuously from when the cells were first seeded on the microplate through complete cellular response, which was between 48-72 hours. The test was performed at 37° C., 5% CO2 and at 75% relative humidity.
# [2] = test system: Patient B2 breast cancer cells; test: as above; conditions: continuous recording
# Method: as §1, §2, §3
# [3] = test system: breast cancer patient cells; test: CELx Pathway Shutdown single drug test (Example 4), impedance biosensor CReMS; conditions: one patient breast cancer cell sample expected to be a responder
# Method: Between 6,000-12,000 cells in each well were seeded onto the impedance microplate containing 120 uL standard media with serum. The solution was replaced with media containing no serum to synchronize the cells with respect to physiologic state and pathway stimulation. Twenty microliters of drugs were added to the no-serum media two hours in advance of pathway stimulation. Pathway stimulation was initiated using EC80 doses of receptor ligand (typically 6 nM in 20 uL). The CReMS recording of physiologic change was maintained continuously for several hours from buffer exchange through complete cellular response to the pathway stimulation. The pathway test was performed at 37° C., 5% CO2 and at a relative humidity 75%.
# The physiologic change of the cells and drugs tested was measured with an impedance biosensor CReMS and the summary output from the CReMS is recorded in FIG. 4. The correlation between these CELx test results and the third party clinical reference is recorded in FIG. 7.
# In those experiments involving anti-proliferative drugs (capecitabine, docetaxel, fluorouracil, paclitaxel, topotecan, cisplatin, and oxiliplatin), the procedures described in Example 2 were utilized. In those experiments involving a combination of drugs, the procedures described in Example 3 were utilized. The list of patient cells and the drug tested with the cells is characterized in FIG. 4.
# [4] = test system: Patient C2 colon cancer cells; test: CELx Combination test, impedance biosensor CReMS; conditions: Patient C2 cells (printed Patient 2), single drug
# Method: The physiologic change of the C1 and C2 cells during the test was measured with an impedance biosensor CReMS and the output from the CReMS is recorded in FIGS. 3A and 3B.
# Between 6,000-12,000 cells in each well were seeded into the impedance microplate containing 120 uL settling media with serum. The solution was replaced with media containing no serum to synchronize the cells with respect to physiologic state. […] The CReMS recording of physiologic change was maintained continuously from when the cells were first seeded on the microplate through complete cellular response, which was between 48-72 hours. The test was performed at 37° C., 5% CO2 and at 75% relative humidity.
# [5] = test system: Patient B1 HER2 overexpressing breast cancer cells; test: CELx Pathway Shutdown test, impedance biosensor CReMS, EGF stimulation; conditions: drug added two hours before EGF pathway stimulation, compared to stimulation with no drug
# Source text: The change in impedance for a particular well is proportional to the number of cells and type of attachment the cells have with the impedance microplate. Changes in impedance indicate a response to perturbation of these small cell populations.
# Prior to addition to the impedance microplate, the cells were removed from their growth container with versene, counted, and re-suspended in media without serum or other growth factors.
# The solution was replaced with media containing no serum to synchronize the cells with respect to physiologic state and pathway stimulation. Twenty microliters of drugs were added to the no-serum media two hours in advance of pathway stimulation.
smiles,measurement,setting,value
CC(=O)O[C@H]1C(=O)[C@@]2(C)[C@H]([C@H](OC(=O)c3ccccc3)[C@]3(O)C[C@H](OC(=O)[C@H](O)[C@@H](NC(=O)c4ccccc4)c4ccccc4)C(C)=C1C3(C)C)[C@]1(OC(C)=O)CO[C@@H]1C[C@@H]2O [Paclitaxel],responsiveness: decrease in CReM output compared to control cells,[1],immediate and continuous responsiveness
same,"time after which CReM output reverses (test cells begin proliferating, no longer responsive)",[2],roughly 24 hours
same,responsiveness: decrease in CReM output compared to control cells,[2]; untreated control cells,initial responsiveness
"COc1cc2ncnc(Nc3ccc(F)c(Cl)c3)c2cc1OCCCN1CCOCC1 [gelfitinib, gefitinib]",response in the CReMS testing,[3],did not show a response
"CCc1c2c(nc3ccc(OC(=O)N4CCC(N5CCCCC5)CC4)cc13)-c1cc3c(c(=O)n1C2)COC(=O)[C@]3(O)CC [irinotecan, Irinotecan]",responsiveness to each individual drug,[4],responsive
"CS(=O)(=O)CCNCc1ccc(-c2ccc3ncnc(Nc4ccc(OCc5cccc(F)c5)c(Cl)c4)c3c2)o1 [lapatinib, Lapatinib]",change (decrease) of cell index of the test cells after drug added,[5],over 50%

# — US10976307B2, “Whole cell assays and methods” (Celcuity Inc., priority 2012, dated 2021)
